From ChEMBL document CHEMBL4800726, “Data for DCP probe MSC-4381” (2021)
One block for each compound: values may come before it.

Experiments:
[1] = target: Histamine H3 receptor (Homo sapiens) (UniProt Q9Y5N1); details: Compound concentration 10.0 uM
[2] = target: Kappa-type opioid receptor (Homo sapiens) (UniProt P41145); details: Compound concentration 10.0 uM
[3] = target: Delta-type opioid receptor (Homo sapiens, UniProt P41143); assay: GPCRScan assay: inhibition of DOR; parameters: radioligand conc. used [nm] 1.0 – 2.0, parental cells stable HEK
Delta-type opioid receptor, sequence (P41143 whole entry): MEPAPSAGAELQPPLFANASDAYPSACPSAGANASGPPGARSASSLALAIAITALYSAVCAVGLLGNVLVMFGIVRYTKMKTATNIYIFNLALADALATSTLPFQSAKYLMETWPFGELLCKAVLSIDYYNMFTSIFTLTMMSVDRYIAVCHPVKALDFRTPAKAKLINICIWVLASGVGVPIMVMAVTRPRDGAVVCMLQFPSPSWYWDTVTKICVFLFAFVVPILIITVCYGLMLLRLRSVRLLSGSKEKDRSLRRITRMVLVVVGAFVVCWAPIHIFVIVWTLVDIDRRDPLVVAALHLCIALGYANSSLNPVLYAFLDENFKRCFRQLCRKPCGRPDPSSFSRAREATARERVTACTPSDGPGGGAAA

[4] = target: 5-hydroxytryptamine receptor 1B (Homo sapiens) (UniProt P28222); details: Compound concentration 10.0 uM
5-hydroxytryptamine receptor 1B (Homo sapiens), sequence (P28222 whole entry): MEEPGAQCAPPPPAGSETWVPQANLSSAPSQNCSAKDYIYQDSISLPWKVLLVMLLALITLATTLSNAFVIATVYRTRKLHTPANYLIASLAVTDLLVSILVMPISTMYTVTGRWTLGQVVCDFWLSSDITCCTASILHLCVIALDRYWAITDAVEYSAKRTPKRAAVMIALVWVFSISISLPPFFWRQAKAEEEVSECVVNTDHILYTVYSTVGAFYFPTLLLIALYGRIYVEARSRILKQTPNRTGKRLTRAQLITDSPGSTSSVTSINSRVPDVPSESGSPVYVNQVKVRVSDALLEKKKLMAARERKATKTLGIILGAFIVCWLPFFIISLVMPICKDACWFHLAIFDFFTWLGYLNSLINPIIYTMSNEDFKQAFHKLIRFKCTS

[5] = GPCRScan assay: inhibition of GABA/PBR; parameters: species or system Rattus norvegicus; radioligand conc. used [nm] 0.3 – 2.0, parental cells brain tissue
[6] = target: Sodium-dependent dopamine transporter (Homo sapiens, UniProt Q01959); assay: GPCRScan assay: inhibition of DAT; parameters: radioligand conc. used [nm] 3.6 – 16.0, parental cells stable HEK
Sodium-dependent dopamine transporter, sequence (Q01959 whole entry): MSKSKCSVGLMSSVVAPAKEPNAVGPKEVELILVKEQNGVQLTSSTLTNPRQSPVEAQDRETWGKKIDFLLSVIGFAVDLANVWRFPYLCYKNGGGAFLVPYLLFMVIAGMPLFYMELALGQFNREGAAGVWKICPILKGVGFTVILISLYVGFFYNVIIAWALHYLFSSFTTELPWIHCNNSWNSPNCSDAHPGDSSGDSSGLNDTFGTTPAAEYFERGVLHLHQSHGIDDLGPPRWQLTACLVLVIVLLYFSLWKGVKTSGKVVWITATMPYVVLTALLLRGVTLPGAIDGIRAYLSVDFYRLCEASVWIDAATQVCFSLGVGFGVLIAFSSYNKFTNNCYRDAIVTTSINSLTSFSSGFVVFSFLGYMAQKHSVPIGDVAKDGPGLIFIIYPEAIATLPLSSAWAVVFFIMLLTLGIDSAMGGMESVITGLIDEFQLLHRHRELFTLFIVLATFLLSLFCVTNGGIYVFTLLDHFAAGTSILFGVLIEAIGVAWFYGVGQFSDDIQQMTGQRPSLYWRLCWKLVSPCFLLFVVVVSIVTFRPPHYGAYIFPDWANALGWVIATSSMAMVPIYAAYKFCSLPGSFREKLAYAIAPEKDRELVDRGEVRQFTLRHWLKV

[7] = target: T1, GABA-A receptor; anion channel (Rattus norvegicus) (UniProt O09028+P15431+P18506+P18508+P19969+P20236+P23574+P23576+P28471+P28473+P30191+P62813+P63079+P63138+Q91ZM7+Q9ES14); details: Compound concentration 10.0 uM
[8] = target: D(3) dopamine receptor (Homo sapiens) (UniProt P35462); details: Compound concentration 10.0 uM
[9] = target: Monocarboxylate transporter 4 (Homo sapiens, UniProt O15427); assay: Lactate efflux inhibition assay (MDA-MB-231)
[10] = target: B2 bradykinin receptor (Homo sapiens) (UniProt P30411); assay: B2 (h) Eurofins-Cerep binding assay; parameters: ligand concentration 0.3 nM; details: filed as agonist, Compound concentration 10.0 uM
B2 bradykinin receptor (Homo sapiens), sequence (P30411 whole entry): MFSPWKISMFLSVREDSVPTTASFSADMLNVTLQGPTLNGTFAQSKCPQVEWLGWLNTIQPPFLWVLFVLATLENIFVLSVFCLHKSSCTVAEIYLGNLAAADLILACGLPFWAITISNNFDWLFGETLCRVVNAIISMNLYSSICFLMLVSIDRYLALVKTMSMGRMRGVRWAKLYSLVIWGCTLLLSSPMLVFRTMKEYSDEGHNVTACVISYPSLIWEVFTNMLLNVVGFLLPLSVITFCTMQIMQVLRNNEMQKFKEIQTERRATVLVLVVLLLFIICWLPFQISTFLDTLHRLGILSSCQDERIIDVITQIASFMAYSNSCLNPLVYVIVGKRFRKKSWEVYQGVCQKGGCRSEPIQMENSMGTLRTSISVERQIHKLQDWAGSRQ

[11] = target: Neuromedin-K receptor (Homo sapiens) (UniProt P29371); assay: NK3 (h) Eurofins-Cerep binding assay; parameters: ligand concentration 0.4 nM; details: filed as antagonist, Compound concentration 10.0 uM
[12] = target: T1, GABA-A receptor; anion channel (Rattus norvegicus); assay: BZD (central) Eurofins-Cerep binding assay; format: protein-complex assay; parameters: ligand concentration 0.4 nM; details: filed as agonist, Compound concentration 10.0 uM
[13] = target: Beta-2 adrenergic receptor (Homo sapiens) (UniProt P07550); assay: Beta2 (h) Eurofins-Cerep binding assay; details: filed as antagonist, Compound concentration 10.0 uM
[14] = target: 5-hydroxytryptamine receptor 7 (Homo sapiens) (UniProt P34969); assay: 5-HT7 (h) Eurofins-Cerep binding assay; parameters: ligand concentration 4 nM; details: filed as agonist, Compound concentration 10.0 uM
5-hydroxytryptamine receptor 7 (Homo sapiens), sequence (P34969 whole entry): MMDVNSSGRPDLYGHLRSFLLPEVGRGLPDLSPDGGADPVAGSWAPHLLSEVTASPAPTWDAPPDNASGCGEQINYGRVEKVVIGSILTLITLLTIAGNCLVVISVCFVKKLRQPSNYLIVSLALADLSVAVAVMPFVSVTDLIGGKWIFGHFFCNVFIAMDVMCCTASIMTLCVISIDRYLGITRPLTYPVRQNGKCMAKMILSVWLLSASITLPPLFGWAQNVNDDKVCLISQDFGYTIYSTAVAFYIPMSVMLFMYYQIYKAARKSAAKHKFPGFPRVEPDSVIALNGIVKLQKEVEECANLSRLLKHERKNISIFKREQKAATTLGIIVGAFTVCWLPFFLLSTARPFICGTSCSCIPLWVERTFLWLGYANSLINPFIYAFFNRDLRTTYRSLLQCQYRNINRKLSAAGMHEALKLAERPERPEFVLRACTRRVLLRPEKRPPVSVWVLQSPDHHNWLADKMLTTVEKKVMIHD

[15] = target: Endothelin-1 receptor (Homo sapiens) (UniProt P25101); assay: ETA (h) Eurofins-Cerep binding assay; parameters: ligand concentration 0.03 nM; details: filed as agonist, Compound concentration 10.0 uM
[16] = target: Melatonin receptor type 1A (Homo sapiens) (UniProt P48039); assay: MT1 (ML1A) (h) Eurofins-Cerep binding assay; parameters: ligand concentration 0.01 nM; details: filed as agonist, Compound concentration 10.0 uM
[17] = target: Sodium-dependent noradrenaline transporter (Homo sapiens) (UniProt P23975); assay: norepinephrine transporter (h) Eurofins-Cerep binding assay; parameters: ligand concentration 1 nM; details: filed as antagonist, Compound concentration 10.0 uM
[18] = target: 5-hydroxytryptamine receptor 1B (Homo sapiens) (UniProt P28222); assay: 5-HT1B(h) Eurofins-Cerep binding assay; parameters: ligand concentration 1 nM; details: filed as antagonist, Compound concentration 10.0 uM
[19] = target: 5-hydroxytryptamine receptor 1E (Homo sapiens, UniProt P28566); assay: GPCRScan assay: inhibition of 5-HT1E; parameters: radioligand conc. used [nm] 2.1 – 5.0, parental cells stable HEK
5-hydroxytryptamine receptor 1E, sequence (P28566 whole entry): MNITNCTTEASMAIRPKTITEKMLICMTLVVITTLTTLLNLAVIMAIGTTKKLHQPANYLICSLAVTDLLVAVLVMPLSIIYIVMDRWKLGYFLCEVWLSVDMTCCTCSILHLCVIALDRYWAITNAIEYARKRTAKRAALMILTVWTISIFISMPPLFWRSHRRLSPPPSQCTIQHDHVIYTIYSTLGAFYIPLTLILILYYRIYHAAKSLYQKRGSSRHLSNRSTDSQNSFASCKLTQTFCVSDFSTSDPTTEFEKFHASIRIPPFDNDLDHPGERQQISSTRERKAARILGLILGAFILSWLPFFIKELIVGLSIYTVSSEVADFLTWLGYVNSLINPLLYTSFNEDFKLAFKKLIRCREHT

[20] = target: L-type Ca2+ channel (dihydropyridine site) (Rattus norvegicus, UniProt P22002+P27732+Q02485); assay: Ca2+ channel (L, dihydropyridine site) Eurofins-Cerep binding assay; format: protein assay; parameters: incubation time 90 min, incubation temperature RT, ligand concentration 0.1 nM; details: rat cerebral cortex, probe [3H]nitrendipine, compound concentration 10 uM, read-out: % Inhibition of Control Specific Binding (Mean n=2)
[21] = target: Type-1 angiotensin II receptor (Homo sapiens) (UniProt P30556); assay: AT1 (h) Eurofins-Cerep binding assay; parameters: ligand concentration 0.05 nM; details: filed as antagonist, Compound concentration 10.0 uM
[22] = target: 5-hydroxytryptamine receptor 2A (Homo sapiens) (UniProt P28223); assay: 5-HT2A (h) Eurofins-Cerep binding assay; parameters: ligand concentration 0.5 nM; details: filed as antagonist, Compound concentration 10.0 uM
5-hydroxytryptamine receptor 2A (Homo sapiens), sequence (P28223 whole entry): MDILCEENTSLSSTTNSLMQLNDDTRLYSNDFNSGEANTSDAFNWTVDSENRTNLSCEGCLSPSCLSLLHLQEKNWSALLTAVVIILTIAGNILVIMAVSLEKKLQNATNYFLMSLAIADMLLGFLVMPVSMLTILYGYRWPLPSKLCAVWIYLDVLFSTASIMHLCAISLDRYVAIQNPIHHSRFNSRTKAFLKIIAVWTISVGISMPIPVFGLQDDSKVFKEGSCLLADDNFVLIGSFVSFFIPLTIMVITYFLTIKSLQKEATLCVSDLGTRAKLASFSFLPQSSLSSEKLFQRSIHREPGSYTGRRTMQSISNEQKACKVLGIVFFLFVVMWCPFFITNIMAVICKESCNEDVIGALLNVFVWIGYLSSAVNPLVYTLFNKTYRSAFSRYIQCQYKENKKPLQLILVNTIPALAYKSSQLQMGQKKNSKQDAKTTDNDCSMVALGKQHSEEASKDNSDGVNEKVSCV

[23] = target: C-C chemokine receptor type 1 (Homo sapiens) (UniProt P32246); assay: CCR1 (h) Eurofins-Cerep binding assay; parameters: ligand concentration 0.01 nM; details: filed as agonist, Compound concentration 10.0 uM
C-C chemokine receptor type 1 (Homo sapiens), sequence (P32246 whole entry): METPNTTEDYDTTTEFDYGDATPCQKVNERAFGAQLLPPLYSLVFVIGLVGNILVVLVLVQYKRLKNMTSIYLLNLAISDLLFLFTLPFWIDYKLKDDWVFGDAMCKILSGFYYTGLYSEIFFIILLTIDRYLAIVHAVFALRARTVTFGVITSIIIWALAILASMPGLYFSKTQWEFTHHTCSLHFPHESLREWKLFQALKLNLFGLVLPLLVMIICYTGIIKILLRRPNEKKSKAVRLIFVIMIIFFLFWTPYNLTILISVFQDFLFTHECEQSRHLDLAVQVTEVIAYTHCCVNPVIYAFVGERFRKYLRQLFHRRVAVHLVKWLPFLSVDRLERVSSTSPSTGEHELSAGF

[24] = target: Muscarinic acetylcholine receptor M3 (Homo sapiens) (UniProt P20309); assay: M3 (h) Eurofins-Cerep binding assay; parameters: ligand concentration 0.2 nM; details: filed as antagonist, Compound concentration 10.0 uM
[25] = target: 5-hydroxytryptamine receptor 6 (Homo sapiens, UniProt P50406); assay: 5-HT6 (h) Eurofins-Cerep binding assay; parameters: ligand concentration 2 nM; details: filed as agonist, Compound concentration 10.0 uM
5-hydroxytryptamine receptor 6, sequence (P50406 whole entry): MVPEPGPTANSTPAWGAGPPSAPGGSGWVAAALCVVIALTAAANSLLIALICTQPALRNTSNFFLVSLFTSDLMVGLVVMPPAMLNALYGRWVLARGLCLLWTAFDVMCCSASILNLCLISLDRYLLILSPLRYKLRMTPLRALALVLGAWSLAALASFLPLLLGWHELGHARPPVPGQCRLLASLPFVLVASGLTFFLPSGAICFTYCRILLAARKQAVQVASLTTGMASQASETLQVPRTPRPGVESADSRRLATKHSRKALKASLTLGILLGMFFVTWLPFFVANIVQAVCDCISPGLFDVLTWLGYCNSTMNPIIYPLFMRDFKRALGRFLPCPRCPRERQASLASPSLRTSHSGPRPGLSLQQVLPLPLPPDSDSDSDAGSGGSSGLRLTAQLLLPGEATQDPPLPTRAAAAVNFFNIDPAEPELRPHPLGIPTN

[26] = target: Neuropeptide Y receptor type 1 (Homo sapiens) (UniProt P25929); assay: Y1 (h) Eurofins-Cerep binding assay; parameters: ligand concentration 0.025 nM; details: filed as agonist, Compound concentration 10.0 uM
[27] = target: T2, Muscarinic acetylcholine receptor M2 (Homo sapiens) (UniProt P08172); assay: M2 (h) Eurofins-Cerep binding assay; parameters: ligand concentration 2 nM; details: filed as antagonist, Compound concentration 10.0 uM
T2 sequence (whole entry): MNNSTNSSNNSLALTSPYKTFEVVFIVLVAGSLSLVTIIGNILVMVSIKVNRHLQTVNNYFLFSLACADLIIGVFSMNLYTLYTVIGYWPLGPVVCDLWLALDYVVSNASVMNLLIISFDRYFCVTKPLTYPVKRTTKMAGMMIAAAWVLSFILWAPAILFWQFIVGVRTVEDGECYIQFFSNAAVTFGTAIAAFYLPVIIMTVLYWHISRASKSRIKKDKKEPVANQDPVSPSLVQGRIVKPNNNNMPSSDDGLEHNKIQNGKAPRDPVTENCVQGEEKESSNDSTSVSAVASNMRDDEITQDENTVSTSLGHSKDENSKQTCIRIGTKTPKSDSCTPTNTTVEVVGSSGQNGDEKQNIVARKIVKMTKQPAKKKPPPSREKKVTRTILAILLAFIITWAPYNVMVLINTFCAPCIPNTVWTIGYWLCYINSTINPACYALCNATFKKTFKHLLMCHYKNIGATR

[28] = target: Prostaglandin E2 receptor EP4 subtype (Homo sapiens) (UniProt P35408); assay: EP4 (h) Eurofins-Cerep binding assay; parameters: ligand concentration 0.5 nM; details: filed as agonist, Compound concentration 10.0 uM
[29] = target: Na+ channel (site 2) (Rattus norvegicus, UniProt F1LQQ7+O08562+O88420+O88457+P04774+P04775+P08104+P15389+P15390+Q62968); assay: Na+ channel (site 2) Eurofins-Cerep binding assay; format: protein assay; parameters: incubation time 60 min, incubation temperature 37°C, ligand concentration 10 nM; details: rat cerebral cortex, probe [3H]batrachotoxin, compound concentration 10 uM, read-out: % Inhibition of Control Specific Binding (Mean n=2)
[30] = target: Nociceptin receptor (Homo sapiens) (UniProt P41146); assay: NOP (ORL1) (h) Eurofins-Cerep binding assay; parameters: ligand concentration 0.06 nM; details: filed as agonist, Compound concentration 10.0 uM
[31] = target: Mu-type opioid receptor (Homo sapiens) (UniProt P35372); assay: mu (MOP) (h) Eurofins-Cerep binding assay; parameters: ligand concentration 0.5 nM; details: filed as agonist, Compound concentration 10.0 uM

Kappa-type opioid receptor (Homo sapiens), sequence (P41145 whole entry): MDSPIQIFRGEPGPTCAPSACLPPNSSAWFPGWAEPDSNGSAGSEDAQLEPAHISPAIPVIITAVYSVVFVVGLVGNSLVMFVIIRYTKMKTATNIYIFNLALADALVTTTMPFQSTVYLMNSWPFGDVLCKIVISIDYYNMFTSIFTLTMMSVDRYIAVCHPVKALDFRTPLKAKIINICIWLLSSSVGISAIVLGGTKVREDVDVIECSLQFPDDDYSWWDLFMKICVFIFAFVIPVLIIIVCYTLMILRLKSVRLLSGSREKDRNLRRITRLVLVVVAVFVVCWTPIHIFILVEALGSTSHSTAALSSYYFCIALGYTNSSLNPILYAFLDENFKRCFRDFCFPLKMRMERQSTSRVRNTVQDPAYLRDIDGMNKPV
Histamine H3 receptor (Homo sapiens), sequence (Q9Y5N1 whole entry): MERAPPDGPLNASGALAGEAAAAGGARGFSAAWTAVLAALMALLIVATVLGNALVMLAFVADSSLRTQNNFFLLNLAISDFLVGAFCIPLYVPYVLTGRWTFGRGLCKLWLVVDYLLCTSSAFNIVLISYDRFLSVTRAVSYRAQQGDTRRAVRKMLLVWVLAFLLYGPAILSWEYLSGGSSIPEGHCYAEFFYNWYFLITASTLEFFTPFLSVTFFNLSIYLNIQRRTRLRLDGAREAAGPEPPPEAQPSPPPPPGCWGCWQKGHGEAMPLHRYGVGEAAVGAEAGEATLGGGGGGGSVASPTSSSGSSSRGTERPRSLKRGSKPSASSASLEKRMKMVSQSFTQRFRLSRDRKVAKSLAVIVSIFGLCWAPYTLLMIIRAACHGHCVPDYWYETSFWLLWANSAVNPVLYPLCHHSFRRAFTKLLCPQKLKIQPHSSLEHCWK

inhibition [1]: 6.76% | inhibition [2]: 11% | Ki ([3]; read-out: Ki): 0.598 µM | Ki ([3]; read-out: pKi (converted)): 0.589 µM | inhibition [4]: 10.6% | Ki [5]: 0.734 µM | pKi [5]: 6.14 | Ki ([6]; read-out: Ki): 9.59 µM | Ki ([6]; read-out: pKi (converted)): 9.55 µM | inhibition [7]: 19.4% | inhibition [8]: -9.21% | IC50 [9]: 0.506 µM (not active)
Structure (SMILES): COc1cc(C(=O)O)ncc1C#Cc1ccccc1NS(=O)(=O)c1cccc2c(N(C)C)ccnc12 [MSC-0516]

% Inhibition of Control Specific Binding (Mean n=2) [10]: -1.1% | % Inhibition of Control Specific Binding (Mean n=2) [11]: -8.7% | % Inhibition of Control Specific Binding (Mean n=2) [12]: -7.6% | % Inhibition of Control Specific Binding (Mean n=2) [13]: -3.7% | % Inhibition of Control Specific Binding (Mean n=2) [14]: -6.6% | % Inhibition of Control Specific Binding (Mean n=2) [15]: -0.2% | % Inhibition of Control Specific Binding (Mean n=2) [16]: 15.3% | % Inhibition of Control Specific Binding (Mean n=2) [17]: 30.4% | % Inhibition of Control Specific Binding (Mean n=2) [18]: -15.6% | Ki [19]: > 10 µM | pKi [19]: < 5 | inhibition at 90 min, 10 µM [20]: -11% | % Inhibition of Control Specific Binding (Mean n=2) [21]: 4.2% | % Inhibition of Control Specific Binding (Mean n=2) [22]: -4.1% | % Inhibition of Control Specific Binding (Mean n=2) [23]: -4.3% | % Inhibition of Control Specific Binding (Mean n=2) [24]: 8% | % Inhibition of Control Specific Binding (Mean n=2) [25]: 32% | % Inhibition of Control Specific Binding (Mean n=2) [26]: -7.5% | % Inhibition of Control Specific Binding (Mean n=2) [27]: 35.8% | % Inhibition of Control Specific Binding (Mean n=2) [28]: 47.2% | % Inhibition of Control Specific Binding (Mean n=2) [30]: -14.7% | % Inhibition of Control Specific Binding (Mean n=2) [31]: -8.9%
Structure (SMILES): CCOc1ccc(S(=O)(=O)Nc2ccc(Cl)cc2C#Cc2cnc(C(=O)O)cc2OC)c2ncccc12 [MSC-4381]
inhibition at 60 min, 10 µM [29]: -4.9%
